The record followed here is the supplement of paper PMC11061612.

What all share (assay): combination Emax (second highest fraction inhibited in the dose matrix, 72 h); higher = more inhibition; extreme values may be limits of the assay
Experiment [1] concerns BICR78 (Oral Cavity Carcinoma). The method in brief:
(§1)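 After 24 hours at 37°C and 5% CO2 in 1536-well plates, cells in DMEM/F12 or RPMI plus 10% FBS received two-drug dose matrices for 72 hours. Viability came from CellTiter-Glo 2.0 luminescence and was scaled as inhibition, anchored at 0 by vehicle wells and at 1 by blank wells. Combination Emax is taken as the second-highest inhibition in the matrix, and Bliss excess as the observed combination effect less EA + EB − EA·EB, with EA and EB the single-agent effects.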

For another experiment, the system named is CS1 (Chondrosarcoma). The method in brief:
as §1

The test system of experiment [2] is D-283MED (Other Solid Carcinomas). The method in brief:
as §1

For a further experiment, the system named is D-392MG (Glioblastoma). The method in brief: as §1
In experiment [3] the test system is EKVX (Non-Small Cell Lung Carcinoma). The method in brief: as §1
In experiment [4] the test system is ETK-1 (Biliary Tract Carcinoma). The method in brief:
as §1

Experiment [5] deals with GDM-1 (Acute Myeloid Leukemia). The method in brief:
as §1

In the next experiment the test system is H4 (Low Grade Glioma). The method in brief: as §1
In experiment [6] the test system is HCT-116 (Colorectal Carcinoma). The method in brief: as §1
In experiment [7] the test system is HLE (Hepatocellular Carcinoma). The method in brief: as §1
Experiment [8] concerns HOP-92 (Non-Small Cell Lung Carcinoma). The method in brief:
as §1

Experiment [9] deals with MEG-01 (Chronic Myelogenous Leukemia). The method in brief: as §1
Experiment [10] concerns NCI-H1688 (Small Cell Lung Carcinoma). The method in brief: as §1
Experiment [11] has as its system RCC10RGB (Kidney Carcinoma). The method in brief: as §1
Experiment [12] relates to SKN-3 (Head and Neck Carcinoma). The method in brief:
as §1

Experiment [13] deals with SLVL (B-Cell Non-Hodgkin's Lymphoma). The method in brief:
as §1

Experiment [14] deals with SNG-M (Endometrial Carcinoma). The method in brief: as §1
A further experiment relates to Saos-2 (Osteosarcoma). The method in brief: as §1
Experiment [15] relates to U-118-MG (Low Grade Glioma). The method in brief:
as §1

Experiment [16] deals with WSU-DLCL2 (B-Cell Non-Hodgkin's Lymphoma). The method in brief:
as §1

In the case of `Cc1c2c(nn1C)CSCc1cc(n(C)n1)CSc1cc(c3ccccc3c1)OCCCc1c(C(=O)O)n(C)c3c-2c(Cl)ccc13` [AZD5991] + CN(C)CCCOc1ccc(-c2ccc3ncc4c(c3c2)n(C2CCOCC2)c(=O)n4C)cn1 [AZD0156] (first compound max 1 µM, 7x7, partner max 1 µM), the “combination Emax” value in [1] worked out at 0.219; in the experiment with CS1 (Chondrosarcoma) it was 0.235; in [2], 0.36; with D-392MG (Glioblastoma) it was 0.252; in experiment [3], 0.239; in [4], 0.26. Besides, the “combination Emax” value is 0.549 in experiment [5]; 0.448 in the experiment with H4 (Low Grade Glioma); 0.265 in experiment [6]; 0.39 in [7]; 0.41 in [8]; 0.432 in [9]. For the same compound, the “combination Emax” value was 0.276 in [10]; 0.243 in experiment [11]; 0.339 in [12]; 0.425 in experiment [13]; 0.209 in experiment [14]; 0.239 in the experiment with Saos-2 (Osteosarcoma). Besides, the “combination Emax” value in experiment [15] came out at 0.27; in experiment [16] it was 1.

With `Cc1c2c(nn1C)CSCc1cc(n(C)n1)CSc1cc(c3ccccc3c1)OCCCc1c(C(=O)O)n(C)c3c-2c(Cl)ccc13` [AZD5991] + C[C@@H]1COCCN1C2=NC(=NC(=C2)C3(CC3)[S@](=N)(=O)C)C4=C5C=CNC5=NC=C4 [AZD6738] (first compound max 1 µM, 7x7, partner max 10 µM), the “combination Emax” value in experiment [1] stood at 0.612; with CS1 (Chondrosarcoma), 0.591; in experiment [2] it was 0.992; in the experiment with D-392MG (Glioblastoma), 0.427; in [3], 0.29; in experiment [4] it was 0.658. The “combination Emax” value in [5] was found to be 0.91; with H4 (Low Grade Glioma) it was 0.813; in experiment [6], 0.63; in experiment [7], 0.802; in experiment [8], 0.723; in experiment [9], 0.931. For the same compound, the “combination Emax” value in experiment [10] amounted to 0.47; in experiment [11] it was 0.43; in experiment [12] it was 0.687; in experiment [13], 0.873; in experiment [14], 0.88; with Saos-2 (Osteosarcoma), 0.6. Further, the “combination Emax” value was found to be 0.506 in [15] and 1 in experiment [16].

In the case of `Cc1c2c(nn1C)CSCc1cc(n(C)n1)CSc1cc(c3ccccc3c1)OCCCc1c(C(=O)O)n(C)c3c-2c(Cl)ccc13` [AZD5991] + Cc1cc2ncnn2cc1Nc1ncc2c(n1)n(C1CCOCC1)c(=O)n2C [AZD7648] (first compound max 1 µM, 7x7, partner max 10 µM), the “combination Emax” value in experiment [1] is 0.219; in the experiment on CS1 (Chondrosarcoma) it was 0.207; in experiment [2], 0.435; in the experiment with D-392MG (Glioblastoma) it was 0.271; in experiment [3] it was 0.303; in experiment [4], 0.294. The “combination Emax” value in experiment [5] was found to be 0.619; with H4 (Low Grade Glioma) it was 0.378; in experiment [6], 0.311; in experiment [7], 0.515; in experiment [8], 0.448; in experiment [9], 0.468. For the same compound, the “combination Emax” value in experiment [10] was 0.297; in experiment [11], 0.342; in experiment [12] it was 0.179; in experiment [13] it was 0.487; in experiment [14], 0.299; with Saos-2 (Osteosarcoma), 0.285. In addition, the “combination Emax” value was 0.425 in experiment [15] and 1 in experiment [16].

`Cc1c2c(nn1C)CSCc1cc(n(C)n1)CSc1cc(c3ccccc3c1)OCCCc1c(C(=O)O)n(C)c3c-2c(Cl)ccc13` [AZD5991] + Cn1cnc2c(F)c(Nc3ccc(Br)cc3Cl)c(C(=O)NOCCO)cc21 [Selumetinib] (first compound max 1 µM, 7x7, partner max 3 µM): the “combination Emax” value in experiment [1] is 0.441; in the experiment on CS1 (Chondrosarcoma) it was 0.224; in experiment [2], 0.237; with D-392MG (Glioblastoma), 0.364; in experiment [3], 0.348; in experiment [4] it was 0.311. Besides, the “combination Emax” value in experiment [5] stood at 0.374; with H4 (Low Grade Glioma), 0.456; in [6], 0.523; in experiment [7], 0.326; in experiment [8], 0.456; in experiment [9], 0.872. Besides, the “combination Emax” value turned out to be 0.411 in experiment [10]; 0.497 in experiment [11]; 0.387 in experiment [12]; 0.47 in experiment [13]; 0.233 in [14]; 0.247 in the experiment with Saos-2 (Osteosarcoma). Further, the “combination Emax” value is 0.326 in [15] and 1 in [16].

Take `C[C@@H]1COCCN1c1cc(C2([S@](C)(=N)=O)CC2)nc(-c2ccnc3[nH]ccc23)n1` [AZD6738] + O=C(c1cc(Cc2n[nH]c(=O)c3ccccc23)ccc1F)N1CCN(C(=O)C2CC2)CC1 [Olaparib] (first compound max 10 µM, 7x7, partner max 10 µM): the “combination Emax” value is 0.615 in experiment [1]; 0.67 with CS1 (Chondrosarcoma); 1 in [2]; 0.38 in the experiment on D-392MG (Glioblastoma); 0.32 in experiment [3]; 0.678 in experiment [4]. The “combination Emax” value was 0.624 in experiment [5]; 0.791 in the experiment on H4 (Low Grade Glioma); 0.78 in experiment [6]; 0.981 in [7]; 0.667 in [8]; 0.908 in experiment [9]. The “combination Emax” value in experiment [10] was 0.203; in experiment [11], 0.441; in [12] it was 0.391; in experiment [13], 0.834; in experiment [14] it was 0.898; with Saos-2 (Osteosarcoma), 0.466. Further, the results for the “combination Emax” value in experiment [15] and in experiment [16] were 0.589 and 0.92, respectively.

Consider `Cc1cc2ncnn2cc1Nc1ncc2c(n1)n(C1CCOCC1)c(=O)n2C` [AZD7648] + C=CCn1c(=O)c2cnc(Nc3ccc(N4CCN(C)CC4)cc3)nc2n1-c1cccc(C(C)(C)O)n1 [AZD1775] (first compound max 10 µM, partner max 1 µM), for which the “combination Emax” value in [1] stood at 0.375; in the experiment with CS1 (Chondrosarcoma), 0.541; in experiment [2] it was 0.957; in the experiment with D-392MG (Glioblastoma), 0.397; in experiment [3], 0.306; in experiment [4] it was 0.452. Also, the “combination Emax” value in experiment [5] came out at 0.894; with H4 (Low Grade Glioma) it was 0.796; in experiment [6] it was 0.633; in experiment [7] it was 0.66; in [8] it was 0.613; in [9], 0.923. For the same compound, the “combination Emax” value in experiment [10] stood at 0.586; in [11] it was 0.552; in [12], 0.283; in [13], 0.916; in experiment [14], 0.645; in the experiment on Saos-2 (Osteosarcoma), 0.582. Further, the figures for the “combination Emax” value in experiment [15] and in [16] were 0.435 and 0.999, respectively.
